The conditions of data set [1]: cited from earlier work.
For data set [2], the system named is aortic valves of LDLR mice on HFD. Nature of the data set: Histology and immunohistochemical staining of aortic valves of LDLR mice on HFD. It is filed as in vivo. The following applies: LDLR mice at 6 months on HFD, NAC 3-5 and 5-6 months combined, vs untreated. On the procedure:
Histology and immunofluorescent staining of aortic valve sections. Mice receiving HFD were euthanized at 6 months and perfused with PBS. Hearts with their attached ascending aorta were excised, fixed in 4% paraformaldehyde for 24 hours and processed for routine paraffin embedding. Tissues were cut in 5 μm thick sections in the middle of the heart to get maximum valve thickness (FIG. 12) and stained with picrosirius red for collagen. For immunofluorescent staining, tissue sections were deparaffinized and rehydrated by immersing in xylene and a series of graded alcohols, followed by heat (97° C.)-induced epitope retrieval using Tris-EDTA buffer, pH 9.0 for 30 minutes. Slides were incubated for 1 hour at RT with blocking buffer (1% BSA+0.3M glycine in Tris-NaCl-Tween buffer) and then incubated overnight at 4° C. with primary antibodies at final concentrations of 0.5 μg/ml. After washing in wash buffer (Tris-NaCl-Tween) and incubation with a fluorescent secondary antibody at RT for 2 hours, slides were washed with wash buffer three times and mounted with a fluorescence mounting medium containing diamidino-2-phenylindole (DAPI) to stain nuclei.
Images were photographed using Ziess 710 Confocal or Nikon eclipse 80i fluorescence microscope. Positively-stained areas and total valve areas in immunohistochemical and histological images were quantified as shown in FIG. 13. Primary antibodies used were anti-phospho-Smad2 (Ser465/467) (AB3849, Millipore), anti-vimentin (ab92547, Abcam), anti-α-SMA (904601, Biolegend), Isolectin B4 (121411, Life Technologies), anti-CD41 (14-0411, eBioscience), anti-CD62P (148301, Biolegend), and anti-collagen (SAB1402151, Sigma). Species-matched secondary antibodies conjugated to Alexa 488, Alexa 594, or Alexa 647 were used. Histology images were analyzed and quantified using ImageJ (NIH).

The conditions of data set [3]: cited from earlier work. The source holds these as a separate data set.
The conditions of data set [4]: cited from earlier work. This is another data set of the same source.
In data set [5] the target is T1, TGF-β1 (Mus musculus, UniProt P04202).
T1 construct: Active TGF-β1 levels in platelet-rich plasma from NAC-treated (n=6) and -untreated (n=8) mice after in vitro stirring; from tissue; host or cells: mouse platelet-rich plasma (blood)
Nature of the data set: Shear-dependent TGF-β1 activation in platelet-rich plasma from NAC-treated mice (ELISA). The class given is in vivo. The following applies: PRP from NAC-treated vs control mice, shear force of 1,800 s^−1 for 2 hours, ELISA (FIG. 4A). On the technique in general: An ELISA detects its analyte on a solid surface through an enzyme-linked reagent.

In data set [6] the test system is mouse model. The following applies: large doses, mouse model; cited from earlier work.
Data set [7] concerns the target T2, latent TGF-β1 released from platelets (Homo sapiens, UniProt P01137).
T2 construct: host or cells: platelet releasate
The following applies: in vitro; cited from earlier work.

The test system of data set [8] is ascending aortic constriction (AAC) model. Briefly: Cardiac fibrosis in ascending aortic constriction (AAC) model. It is filed as in vivo, mice. The following applies: high shear pressure overload AAC model, NAC treatment (data not shown). From the text: Ascending Aortic Constriction. Ascending aortic constriction was induced by controlled constriction of the ascending aorta as described previously 26. Briefly, mice were anesthetized with 1.5% isoflurane and the ascending aorta was surgically exposed by a mid-thorax incision. A 2 7-0 suture was placed around both the aorta and an adjacent 27-gauge (0.41 mm OD) needle proximal to the origin of the innominate artery. […] Mice were sacrificed and tissues collected 1 month after the surgery.

Entries after “also recorded” stand apart in the source; their conditions may differ. Like-named read-outs stand apart in the source and are kept apart here.

T2 sequence (P01137 30-278 limits assumed): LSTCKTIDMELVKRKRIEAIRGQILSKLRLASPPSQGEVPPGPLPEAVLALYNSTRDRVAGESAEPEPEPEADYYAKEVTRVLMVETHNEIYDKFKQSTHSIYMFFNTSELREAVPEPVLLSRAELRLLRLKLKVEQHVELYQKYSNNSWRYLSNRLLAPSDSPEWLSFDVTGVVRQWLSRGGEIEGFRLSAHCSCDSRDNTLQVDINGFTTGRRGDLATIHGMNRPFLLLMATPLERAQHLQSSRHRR
T2 sequence (P01137 279-390 limits assumed): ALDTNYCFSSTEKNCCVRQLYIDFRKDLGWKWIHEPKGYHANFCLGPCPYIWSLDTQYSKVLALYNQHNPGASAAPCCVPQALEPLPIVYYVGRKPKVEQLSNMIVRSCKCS
T2 sequence (Q14766 24-1721 partner): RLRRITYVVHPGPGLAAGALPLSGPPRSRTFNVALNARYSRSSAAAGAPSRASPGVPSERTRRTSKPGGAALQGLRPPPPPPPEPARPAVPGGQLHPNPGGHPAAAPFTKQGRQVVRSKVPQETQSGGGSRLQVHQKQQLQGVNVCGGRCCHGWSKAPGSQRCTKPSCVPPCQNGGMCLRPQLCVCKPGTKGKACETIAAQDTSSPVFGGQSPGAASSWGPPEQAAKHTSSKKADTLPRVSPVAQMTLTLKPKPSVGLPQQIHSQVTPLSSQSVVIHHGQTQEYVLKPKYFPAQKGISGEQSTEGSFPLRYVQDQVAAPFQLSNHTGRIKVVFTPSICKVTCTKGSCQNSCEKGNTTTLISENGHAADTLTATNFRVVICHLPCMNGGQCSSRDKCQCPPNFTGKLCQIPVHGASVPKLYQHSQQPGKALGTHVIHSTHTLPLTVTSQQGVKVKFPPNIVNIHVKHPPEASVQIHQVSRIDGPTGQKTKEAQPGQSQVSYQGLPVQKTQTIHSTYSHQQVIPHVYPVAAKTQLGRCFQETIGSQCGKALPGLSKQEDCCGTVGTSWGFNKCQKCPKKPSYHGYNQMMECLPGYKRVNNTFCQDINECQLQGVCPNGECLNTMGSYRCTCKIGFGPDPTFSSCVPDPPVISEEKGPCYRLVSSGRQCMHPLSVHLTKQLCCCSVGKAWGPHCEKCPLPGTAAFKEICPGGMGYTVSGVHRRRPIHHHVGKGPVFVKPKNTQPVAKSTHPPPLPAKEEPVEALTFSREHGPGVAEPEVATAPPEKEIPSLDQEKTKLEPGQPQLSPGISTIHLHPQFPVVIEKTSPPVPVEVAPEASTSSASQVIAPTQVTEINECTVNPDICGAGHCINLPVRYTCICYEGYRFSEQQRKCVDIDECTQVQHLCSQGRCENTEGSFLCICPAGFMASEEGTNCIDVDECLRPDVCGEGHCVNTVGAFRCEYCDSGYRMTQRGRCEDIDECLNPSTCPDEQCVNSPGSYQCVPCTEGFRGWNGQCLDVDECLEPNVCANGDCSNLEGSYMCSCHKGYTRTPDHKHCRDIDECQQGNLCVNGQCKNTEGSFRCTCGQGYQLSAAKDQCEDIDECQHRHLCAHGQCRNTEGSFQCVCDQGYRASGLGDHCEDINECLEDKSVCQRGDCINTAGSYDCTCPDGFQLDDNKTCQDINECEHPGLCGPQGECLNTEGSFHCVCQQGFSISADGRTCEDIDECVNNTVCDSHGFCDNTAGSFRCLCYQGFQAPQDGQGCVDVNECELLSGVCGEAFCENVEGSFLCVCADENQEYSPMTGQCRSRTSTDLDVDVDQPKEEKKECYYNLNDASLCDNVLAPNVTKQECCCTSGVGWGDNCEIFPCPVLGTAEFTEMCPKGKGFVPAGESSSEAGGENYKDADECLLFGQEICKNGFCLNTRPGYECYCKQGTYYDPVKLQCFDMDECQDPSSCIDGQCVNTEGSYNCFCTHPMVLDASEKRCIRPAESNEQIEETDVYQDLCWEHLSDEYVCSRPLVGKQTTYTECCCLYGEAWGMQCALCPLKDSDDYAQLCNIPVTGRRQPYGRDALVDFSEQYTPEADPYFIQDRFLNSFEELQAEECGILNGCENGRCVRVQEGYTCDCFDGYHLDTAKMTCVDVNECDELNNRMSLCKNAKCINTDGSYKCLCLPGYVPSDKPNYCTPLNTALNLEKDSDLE
T1 sequence (P04202 30-278 limits assumed): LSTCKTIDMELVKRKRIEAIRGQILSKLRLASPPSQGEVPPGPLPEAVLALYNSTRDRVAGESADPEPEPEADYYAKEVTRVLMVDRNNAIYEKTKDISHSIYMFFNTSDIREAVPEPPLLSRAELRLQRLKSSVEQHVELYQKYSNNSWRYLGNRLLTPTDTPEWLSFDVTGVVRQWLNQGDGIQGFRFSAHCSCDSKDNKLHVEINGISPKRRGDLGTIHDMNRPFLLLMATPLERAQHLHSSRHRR
T1 sequence (P04202 279-390 limits assumed): as the sequence (P01137 279-390 limits assumed) above, with A75S counted along it
T1 sequence (Q8CG19 24-1712 partner): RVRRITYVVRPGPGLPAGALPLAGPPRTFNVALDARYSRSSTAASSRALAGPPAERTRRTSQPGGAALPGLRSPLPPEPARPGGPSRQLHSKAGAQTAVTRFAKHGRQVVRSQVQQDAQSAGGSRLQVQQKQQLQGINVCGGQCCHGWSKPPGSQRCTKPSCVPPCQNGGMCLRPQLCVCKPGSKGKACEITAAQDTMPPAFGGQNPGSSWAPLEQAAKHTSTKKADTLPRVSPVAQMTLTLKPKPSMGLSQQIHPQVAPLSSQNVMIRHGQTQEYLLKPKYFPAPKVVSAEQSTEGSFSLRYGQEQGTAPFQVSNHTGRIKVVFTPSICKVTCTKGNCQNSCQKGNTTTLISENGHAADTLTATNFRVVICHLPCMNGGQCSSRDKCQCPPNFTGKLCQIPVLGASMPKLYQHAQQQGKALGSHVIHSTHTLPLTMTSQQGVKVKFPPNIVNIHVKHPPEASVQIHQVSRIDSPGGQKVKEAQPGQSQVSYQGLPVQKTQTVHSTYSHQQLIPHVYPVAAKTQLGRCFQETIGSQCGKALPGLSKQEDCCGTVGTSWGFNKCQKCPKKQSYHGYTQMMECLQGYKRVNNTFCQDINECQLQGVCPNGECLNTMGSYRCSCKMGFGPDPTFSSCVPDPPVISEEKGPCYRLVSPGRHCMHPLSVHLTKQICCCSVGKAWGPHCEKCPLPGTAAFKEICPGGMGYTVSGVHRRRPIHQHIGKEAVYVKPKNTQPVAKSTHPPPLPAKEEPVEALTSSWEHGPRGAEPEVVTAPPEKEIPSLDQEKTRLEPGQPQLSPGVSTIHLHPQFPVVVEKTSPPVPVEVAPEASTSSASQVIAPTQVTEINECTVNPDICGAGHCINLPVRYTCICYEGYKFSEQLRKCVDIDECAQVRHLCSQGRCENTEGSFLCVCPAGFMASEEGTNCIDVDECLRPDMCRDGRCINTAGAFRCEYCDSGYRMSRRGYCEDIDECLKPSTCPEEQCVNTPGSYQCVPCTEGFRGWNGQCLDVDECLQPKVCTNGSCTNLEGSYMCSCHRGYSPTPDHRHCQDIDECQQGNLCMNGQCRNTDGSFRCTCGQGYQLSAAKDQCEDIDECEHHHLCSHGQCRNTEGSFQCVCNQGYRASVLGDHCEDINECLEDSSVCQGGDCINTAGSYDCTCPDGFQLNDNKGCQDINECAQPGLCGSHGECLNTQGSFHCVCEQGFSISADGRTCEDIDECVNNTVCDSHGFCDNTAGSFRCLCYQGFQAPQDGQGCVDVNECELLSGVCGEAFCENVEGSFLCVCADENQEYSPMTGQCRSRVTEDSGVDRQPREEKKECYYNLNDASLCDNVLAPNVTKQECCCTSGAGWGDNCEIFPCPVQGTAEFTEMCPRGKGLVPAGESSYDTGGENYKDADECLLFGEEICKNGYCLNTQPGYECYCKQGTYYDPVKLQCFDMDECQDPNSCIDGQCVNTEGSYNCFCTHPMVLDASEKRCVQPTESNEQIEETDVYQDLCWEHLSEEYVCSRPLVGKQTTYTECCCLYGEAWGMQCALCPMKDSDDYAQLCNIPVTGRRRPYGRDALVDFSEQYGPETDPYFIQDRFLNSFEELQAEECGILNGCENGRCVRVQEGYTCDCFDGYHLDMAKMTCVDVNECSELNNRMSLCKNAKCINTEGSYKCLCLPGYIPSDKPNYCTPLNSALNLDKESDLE

`CC(=O)N[C@@H](CS)C(=O)O` [NAC, N-acetylcysteine]: the liver damage entry in data set [1] (taken 4 hours after alcohol, dose-dependent) is “made liver damage worse”; in data set [1] (taken before alcohol) it was “prevented liver damage”. For the same molecule, the aortic valve area entry in data set [2] is reported as “reduced”. Moreover, in data set [2], the “fibrosis in aortic valves” value is “reduced”. Moreover, the “p-Smad2 staining in aortic valves” value in data set [2] is “reduced”. Also, the solubility result in data set [3] (alcohol) was “soluble”; in data set [3] (chloroform) it was “practically insoluble”; in data set [3] (ether), “practically insoluble”; in data set [3] (water), “soluble”. Besides, the Urine excretion in data set [4] (in vivo) is listed as 22-30%. The metabolism entry in data set [4] (liver) is listed as “extensively liver metabolized”. In data set [5], the “TGF-β1 activation (active TGF-β1 levels) in PRP” value is “much lower”. In addition, the “damage to the heart and lungs” value in data set [6] was “could potentially cause damage to the heart and lungs”. The “shear-dependent activation of latent TGF-β1 released from platelets” value in data set [7] is reported as “inhibited; also recorded: partially inhibits; also recorded: blocks”. The cardiac fibrosis entry in data set [8] is reported as “inhibits cardiac fibrosis”.

These data come from patent US11752122B2 (OKLAHOMA MEDICAL RESEARCH FOUNDATION, priority 2018, dated 2023).
